Assay results as given in patent EP4768484A1, “HETEROCYCLIC FUSED RING COMPOUND, AND COMPOSITION AND USE THEREOF” (Shenzhen TargetRx, Inc., priority 2023, dated 2025).

Columns and labels:
Format in all cases: cell-based
[1] = target: T1, Ba/F3 BCR-ABL1 E255V/T315I (Homo sapiens, UniProt P00519+P11274, E255V/T315I); experiment: Cell growth inhibitory activity assay (CellTiter-Glo), Ba/F3 BCR-ABL1 E255V/T315I cells; conditions: 72 h, CTG cell viability
T1 construct: BCR (N-terminal fusion partner of the oncoprotein); expressed in transfected cells; host or cells: Ba/F3 (lentiviral transduction, monoclonal line)
How it was run: (§1)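 Luminescent ATP read-out (CellTiter-Glo) after 72 h compound exposure at 37 °C, 5% CO2. Cells: monoclonal Ba/F3 lentivirally engineered with mutant BCR-ABL1, or parental Ba/F3. A T0 plate read the day after seeding; 0.5% DMSO wells as uninhibited growth control. IC50 via variable-slope logistic fit of % inhibition.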

[2] = target: T2, Ba/F3 BCR-ABL1 T315I (Homo sapiens, UniProt P00519+P11274, T315I); experiment: Cell growth inhibitory activity assay (CellTiter-Glo), Ba/F3 BCR-ABL1 T315I cells; conditions: 72 h, CTG cell viability
T2 construct: BCR (N-terminal fusion partner of the oncoprotein); expressed in transfected cells; host or cells: Ba/F3 (lentiviral transduction, monoclonal line)
How it was run: as §1

[3] = target: T3, Ba/F3 BCR-ABL1 V468F (Homo sapiens, UniProt P00519+P11274, V468F); experiment: Cell growth inhibitory activity assay (CellTiter-Glo), Ba/F3 BCR-ABL1 V468F cells; conditions: 72 h, CTG cell viability
T3 construct: BCR (N-terminal fusion partner of the oncoprotein); expressed in transfected cells; host or cells: Ba/F3 (lentiviral transduction, monoclonal line)
How it was run: as §1

[4] = target: T4, Ba/F3 BCR-ABL1 Y253H/E255K (Homo sapiens, UniProt P00519+P11274, E255K/Y253H); experiment: Cell growth inhibitory activity assay (CellTiter-Glo), Ba/F3 BCR-ABL1 Y253H/E255K cells; conditions: 72 h, CTG cell viability
T4 construct: BCR (N-terminal fusion partner of the oncoprotein); expressed in transfected cells; host or cells: Ba/F3 (lentiviral transduction, monoclonal line)
How it was run: as §1

[5] = system: Ba/F3 parental cells; experiment: Cell growth inhibitory activity assay (CellTiter-Glo), Ba/F3 parental cells; conditions: Mus musculus, BaF3, 72 h, CTG cell viability, read-out: IC50 Ba/F3 BCR-ABL1 Parental
How it was run: as §1

[6] = target: T5, Ba/F3 BCR-ABL1 P465S (Homo sapiens, UniProt P00519+P11274, P465S); experiment: Cell growth inhibitory activity assay (CellTiter-Glo), Ba/F3 BCR-ABL1 P465S cells; conditions: 72 h, CTG cell viability
T5 construct: BCR (N-terminal fusion partner of the oncoprotein); expressed in transfected cells; host or cells: Ba/F3 (lentiviral transduction, monoclonal line)
Procedure: (§2) In this assay, the Celltiter-Glo (CTG) kit provided by Promega was used, and it is a homogeneous cell viability assay method. The cell viability of cultured cells was measured by quantifying ATP. K562 cells were purchased from Nanjing Kebai, product number CBP60529; Ba/F3 parental cells were purchased from RIKEN BRC, product number RCB0805; other cells containing BCR-ABL1 WT, BCR-ABL1 T315I, BCR-ABL1 T315M, BCR-ABL1 Y253H/E255K, BCR-ABL1 E255V/T3151, BCR-ABL1 A424T, BCR-ABL1 A337V, BCR-ABL1 P465S, BCR-ABL1 V468F, and BCR-ABL1 I502L were all monoclonal engineered cell lines obtained by transducting Ba/F3 parental cells with the lentivirus plasmids containing WT or corresponding mutated BCR-ABL1.
(§3) The steps of cell viability assay are as follows: • a) Cells in logarithmic growth phase were collected. Cell suspension was prepared and the cells were counted. Concentration of the cells was calculated. • b) The cell suspension was diluted to the required concentration and then added to the middle wells of a 96-well plate, and PBS was added to the edge wells. The wells with no cells and only culture medium were used as blank controls. • c) In addition to the cell plate used for compound analysis, another 96-well plate was prepared as a T0 plate, and 3-6 blank wells and 3-6 cell wells were added. The next day, CTG was used to test the cell viability as the T0 viability value of the cells. • d) The cell plate was incubated at 37 °C in a 5% CO2 incubator overnight. • e) The next day, each concentration of a compound subjected to a gradient dilution was added, and the cell plate was incubated at 37 °C in a 5% CO2 incubator for 72 h. The wells with no compound and only 0.5% DMSO were used as positive controls for cell growth. • f) CTG reagent (CellTiter-Glo kit) was added according to the manufacturer's instructions to test the cell viability value. • g) The plate was read using Biotek cytation3.0 microplate reader and the data were exported. • h) IC50 was calculated using GraphPad Prism 7.0 software.
(§4) The IC50 (half-maximal inhibitory concentration) of the compound was obtained using the following nonlinear fitting formula: Y = Bottom + (Top−Bottom)/(1+10^(∧)((LogIC50−X)*HillSlope)) [formula] • X: Log value of the compound concentration • Y: Inhibition rate (% inhibition) • Top: Maximum response • Bottom: Baseline response • HillSlope: Slope of the curve
(§5) The formula for calculating cell inhibition rate (inhibition rate %) was: [formula]

[7] = target: T6, Ba/F3 BCR-ABL1 T315M (Homo sapiens, UniProt P00519+P11274, T315M); experiment: Cell growth inhibitory activity assay (CellTiter-Glo), Ba/F3 BCR-ABL1 T315M cells; conditions: 72 h, CTG cell viability
T6 construct: BCR (N-terminal fusion partner of the oncoprotein); expressed in transfected cells; host or cells: Ba/F3 (lentiviral transduction, monoclonal line)
How it was run: as §1

[8] = target: T7, Ba/F3 BCR-ABL1 A424T (Homo sapiens, UniProt P00519+P11274, A424T); experiment: Cell growth inhibitory activity assay (CellTiter-Glo), Ba/F3 BCR-ABL1 A424T cells; conditions: 72 h, CTG cell viability
T7 construct: BCR (N-terminal fusion partner of the oncoprotein); expressed in transfected cells; host or cells: Ba/F3 (lentiviral transduction, monoclonal line)
How it was run: as §1

[9] = target: T8, Ba/F3 BCR-ABL1 WT (Homo sapiens, UniProt P00519+P11274); experiment: Cell growth inhibitory activity assay (CellTiter-Glo), Ba/F3 BCR-ABL1 WT cells; conditions: 72 h, CTG cell viability
T8 construct: BCR (N-terminal fusion partner of the oncoprotein); expressed in transfected cells; host or cells: Ba/F3 (lentiviral transduction, monoclonal line)
How it was run: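 Ba/F3 parental cells or Ba/F3 lines lentivirally transduced with WT or mutant BCR-ABL1, seeded overnight then exposed to serially diluted compound 72 h at 37 °C, 5% CO2. Viability by CellTiter-Glo ATP luminescence with a T0 plate; 0.5% DMSO controls; IC50 from four-parameter nonlinear fit.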

[10] = target: T9, Ba/F3 BCR-ABL1 I502L (Homo sapiens, UniProt P00519+P11274, I502L); experiment: Cell growth inhibitory activity assay (CellTiter-Glo), Ba/F3 BCR-ABL1 I502L cells; conditions: 72 h, CTG cell viability
T9 construct: BCR (N-terminal fusion partner of the oncoprotein); expressed in transfected cells; host or cells: Ba/F3 (lentiviral transduction, monoclonal line)
Procedure: as §2, §3, §4, §5

[11] = target: T10, Ba/F3 BCR-ABL1 A337V (Homo sapiens, UniProt P00519+P11274, A337V); experiment: Cell growth inhibitory activity assay (CellTiter-Glo), Ba/F3 BCR-ABL1 A337V cells; conditions: 72 h, CTG cell viability
T10 construct: BCR (N-terminal fusion partner of the oncoprotein); expressed in transfected cells; host or cells: Ba/F3 (lentiviral transduction, monoclonal line)
Procedure: as §2, §3, §4, §5

[12] = system: K562 cells; experiment: Cell growth inhibitory activity assay (CellTiter-Glo), K562 cells; conditions: Homo sapiens, 72 h, CTG cell viability
How it was run: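 K562 cells in logarithmic growth were counted, diluted and plated in 96-well plates, with medium-only blanks and a separate T0 plate read by CTG the following day. After overnight incubation, graded compound concentrations were added for 72 h, with 0.5% DMSO wells as growth controls. Luminescence was read on a Biotek cytation3.0, and IC50 came from nonlinear fitting in GraphPad Prism 7.0.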

SMILES	IC50 [1]	IC50 [2]	IC50 [3]	IC50 [4]	IC50 [5]	IC50 [6]	IC50 [7]	IC50 [8]	IC50 [9]	IC50 [10]	IC50 [11]	IC50 [12]
C[C@@H]1COCc2nc3cc(C(=O)Nc4ccc(OC(F)(F)Cl)cc4)cc(-c4cnc5c(c4)-c4nn(-c6cncnc6)cc4C5)c3n21 [T-66, (R)-N-(4-(chlorodifluoromethoxy)phenyl)-4-methyl-6-(2-(pyrimidin-5-yl)-2,4-dihydropyrazolo[3',4':3,4]cyclopenta[1,2-b]pyridin-7-yl)-3,4-dihydro-1H-benzo[4,5]imidazo[2,1-c][1,4]oxazine-8-carboxamide]	50 to 1000 nM	5 to 50 nM	50 to 1000 nM	50 to 1000 nM	> 1000 nM	50 to 1000 nM	> 1000 nM	5 to 50 nM	≤ 5 nM	50 to 1000 nM	50 to 1000 nM	≤ 5 nM
C[C@@H]1COCc2nc3cc(C(=O)Nc4ccc(OC(F)(F)Cl)cc4)cc(-c4cnc5c(c4)-c4c(cnn4-c4nccc(C#N)n4)C5)c3n21 [T-69-A, (R)-N-(4-(chlorodifluoromethoxy)phenyl)-6-(1-(4-cyanopyrimidin-2-yl)-1,4-dihydropyrazolo[3',4':3,4]cyclopenta[1,2-b]pyridin-7-yl)-4-methyl-3,4-dihydro-1H-benzo[4,5]imidazo[2,1-c][1,4]oxazine-8-carboxamide]	5 to 50 nM	5 to 50 nM	> 1000 nM	5 to 50 nM	> 1000 nM	50 to 1000 nM	50 to 1000 nM	50 to 1000 nM	≤ 5 nM	50 to 1000 nM	50 to 1000 nM	≤ 5 nM
C[C@@H]1COCc2nc3cc(C(=O)Nc4ccc(OC(F)(F)Cl)cc4)cc(-c4cnc5c(c4)-c4nn(-c6nccc(C#N)n6)cc4C5)c3n21 [T-69-B, (R)-N-(4-(chlorodifluoromethoxy)phenyl)-6-(2-(4-cyanopyrimidin-2-yl)-2,4-dihydropyrazolo[3',4':3,4]cyclopenta[1,2-b]pyridin-7-yl)-4-methyl-3,4-dihydro-1H-benzo[4,5]imidazo[2,1-c][1,4]oxazine-8-carboxamide]	≤ 5 nM	≤ 5 nM	50 to 1000 nM	5 to 50 nM	> 1000 nM	50 to 1000 nM	≤ 5 nM	5 to 50 nM	≤ 5 nM	≤ 5 nM	50 to 1000 nM	≤ 5 nM
C[C@@H]1COCc2nc3cc(C(=O)Nc4ccc(OC(F)(F)Cl)cc4)cc(-c4cnc5c(c4)-c4nn(-c6cnccn6)cc4C5)c3n21 [T-71, (R)-N-(4-(chlorodifluoromethoxy)phenyl)-4-methyl-6-(2-(pyrazin-2-yl)-2,4-dihydropyrazolo[3',4':3,4]cyclopenta[1,2-b]pyridin-7-yl)-3,4-dihydro-1H-benzo[4,5]imidazo[2,1-c][1,4]oxazine-8-carboxamide]	≤ 5 nM	≤ 5 nM	50 to 1000 nM	≤ 5 nM	> 1000 nM	50 to 1000 nM	5 to 50 nM	5 to 50 nM	≤ 5 nM	5 to 50 nM	50 to 1000 nM	≤ 5 nM
Cc1cc(C)nc(-n2cc3c(n2)-c2cc(-c4cc(C(=O)Nc5ccc(OC(F)(F)Cl)cc5)cc5nc6n(c45)[C@H](C)COC6)cnc2C3)n1 [T-76, (R)-N-(4-(chlorodifluoromethoxy)phenyl)-6-(2-(4,6-dimethylpyrimidin-2-yl)-2,4-dihydropyrazolo[3',4':3,4]cyclopenta[1,2-b]pyridin-7-yl)-4-methyl-3,4-dihydro-1H-benzo[4,5]imidazo[2,1-c][1,4]oxazine-8-carboxamide]	≤ 5 nM	≤ 5 nM	50 to 1000 nM	≤ 5 nM	> 1000 nM	50 to 1000 nM	≤ 5 nM	≤ 5 nM	≤ 5 nM	5 to 50 nM	50 to 1000 nM	≤ 5 nM
C[C@@H]1COCc2nc3cc(C(=O)Nc4ccc(OC(F)(F)Cl)cc4)cc(-c4cnccn4)c3n21 [T-115, (R)-N-(4-(chlorodifluoromethoxy)phenyl)-4-methyl-6-(pyrazin-2-yl)-3,4-dihydro-1H-benzo[4,5]imidazo[2,1-c][1,4]oxazine-8-carboxamide]	5 to 50 nM	5 to 50 nM	50 to 1000 nM	5 to 50 nM	> 1000 nM	50 to 1000 nM	> 1000 nM	50 to 1000 nM	≤ 5 nM	50 to 1000 nM	50 to 1000 nM	≤ 5 nM
